Reference: patent USRE33699E, “Growth hormone-releasing factor analogs” (International Minerals & Chemical Corp., priority 1990, dated 1991)
Square brackets hold non-standard residues; d marks the D form. Peptide text beside a SMILES is read from it. Nle = CCCC[C@H](N)C(=O)O

System: rat pituitary cells
Test: Bioassay of hGRF analogs: stimulation of growth hormone release in rat pituitary cells in tissue culture
Format: cell-based
Conditions: for Dose Needed to Release 2.01 μg/ml of GH: 2.01 μg/ml = GH released at the ED50 of hGRF; for Dose Needed to Release 2.01 μg/ml of GH / Relative Maximum Activity (% of hGRF): from ALLFIT curves; for Potency: (ED50 of hGRF)/(Dose required to give same response as ED50 of hGRF)
From the text: The assay for biological activity, which is based on the ability to stimulate release of growth hormone in rat pituitary cells in tissue culture, has been described in detail (Culler, M. D.; Kenjo, T.: Obara, N.; Arimuar, A., Stimulation of cAMP. Accumulation by Human Pancreatic GH-Releasing Factor(1-44). Am. J. Physiol. 1984, 247 (Endocrinol.Metab. 10). E609-E615.
ALLFIT, the 4-parameter logistic curve fitting program available from the Biomedical Computer Technology Information Center, Vanderbilt Medical Center, Nashville Tenn., was used to determine ED50 and maximal stimulated values from the data. In several instances, the amount of GH released reached a maximum value and decreased with further increasing doses of the hGRF analogs. To simplify the data analysis, these values were not used in the calculations. The calculated maximal responses, the doses of the analog required to release the amount of GH released at the ED50 of the standard (hGRF) and the potencies of the analogs relative to hGRF, are given in Table 2. Generally all novel analogs were fully active and were able to stimulate the release of growth hormone with maximal values of GH release being within 80% of the value for natural hGRF.

| Compound | Dose Needed to Release 2.01 μg/ml of GH [nM] | Potency [%] | Relative Maximum Activity (% of hGRF) | Potency (Asp^8, Asn^25, Nle^27 ]) [%] |
| --- | --- | --- | --- | --- |
| CCCC[C@H](NC(=O)[C@@H](NC(=O)[C@H](CC(N)=O)NC(=O)[C@H](CCC(N)=O)NC(=O)[C@H](CC(C)C)NC(=O)[C@H](CC(C)C)NC(=O)[C@H](CCCCN)NC(=O)[C@H](CCCNC(=N)N)NC(=O)[C@H](C)NC(=O)[C@H](CO)NC(=O)[C@H](CC(C)C)NC(=O)[C@H](CCC(N)=O)NC(=O)CNC(=O)[C@H](CC(C)C)NC(=O)[C@@H](NC(=O)[C@H](CCCCN)NC(=O)[C@H](CCCNC(=N)N)NC(=O)[C@H](Cc1ccc(O)cc1)NC(=O)[C@H](CO)NC(=O)[C@H](CC(=O)O)NC(=O)[C@@H](NC(=O)[C@H](Cc1ccccc1)NC(=O)[C@@H](NC(=O)[C@H](C)NC(=O)[C@H](CC(=O)O)NC(=O)[C@H](C)NC(=O)[C@@H](N)Cc1ccc(O)cc1)[C@@H](C)CC)[C@@H](C)O)C(C)C)[C@@H](C)CC)C(=O)N[C@@H](CO)C(=O)N[C@@H](CCCNC(=N)N)C(=O)N[C@@H](CCC(N)=O)C(=O)N[C@@H](CCC(N)=O)C(N)=O [[Asp^8, Asn^25, Nle^27]-hGRF(1-31)--NH2, [Asp^8,Asn^25,Nle^27]-hGRF(1-31)--NH2] (H-YADAIFTDSYRKVLGQLSARKLLQNI[Nle]SRQQ-NH2) | 0.42 | 76 | 87 % of hGRF |  |
| CCCC[C@H](NC(=O)[C@@H](NC(=O)[C@H](CC(N)=O)NC(=O)[C@H](CCC(N)=O)NC(=O)[C@H](CC(C)C)NC(=O)[C@H](CC(C)C)NC(=O)[C@H](CCCCN)NC(=O)[C@H](CCCNC(=N)N)NC(=O)[C@H](C)NC(=O)[C@H](CO)NC(=O)[C@H](CC(C)C)NC(=O)[C@H](CCC(N)=O)NC(=O)CNC(=O)[C@H](CC(C)C)NC(=O)[C@@H](NC(=O)[C@H](CCCCN)NC(=O)[C@H](CCCNC(=N)N)NC(=O)[C@H](Cc1ccc(O)cc1)NC(=O)[C@H](CO)NC(=O)[C@H](CC(N)=O)NC(=O)[C@@H](NC(=O)[C@H](Cc1ccccc1)NC(=O)[C@@H](NC(=O)[C@H](C)NC(=O)[C@H](CC(N)=O)NC(=O)[C@H](C)NC(=O)[C@@H](N)Cc1ccc(O)cc1)[C@@H](C)CC)[C@@H](C)O)C(C)C)[C@@H](C)CC)C(=O)N[C@@H](CO)C(=O)N[C@@H](CCCNC(=N)N)C(=O)N[C@@H](CCC(N)=O)C(=O)N[C@@H](CCC(N)=O)C(N)=O [[Asn^3, Asn^25, Nle^27]-hGRF(1-31)--NH2, [Asn^3,Asn^25,Nle^27]-hGRF (1-31)--NH2] (H-YANAIFTNSYRKVLGQLSARKLLQNI[Nle]SRQQ-NH2) | 1.54 | 21 | 101 % of hGRF |  |
| CCCC[C@H](NC(=O)[C@@H](NC(=O)[C@H](CC(N)=O)NC(=O)[C@H](CCC(N)=O)NC(=O)[C@H](CC(C)C)NC(=O)[C@H](CC(C)C)NC(=O)[C@H](CCCCN)NC(=O)[C@H](CCCNC(=N)N)NC(=O)[C@H](C)NC(=O)[C@H](CO)NC(=O)[C@H](CC(C)C)NC(=O)[C@H](CCC(N)=O)NC(=O)CNC(=O)[C@H](CC(C)C)NC(=O)[C@@H](NC(=O)[C@H](CCCCN)NC(=O)[C@H](CCCNC(=N)N)NC(=O)[C@H](Cc1ccc(O)cc1)NC(=O)[C@H](CO)NC(=O)[C@H](CC(=O)O)NC(=O)[C@@H](NC(=O)[C@H](Cc1ccccc1)NC(=O)[C@@H](NC(=O)[C@H](C)NC(=O)[C@H](CC(N)=O)NC(=O)[C@H](C)NC(=O)[C@@H](N)Cc1ccc(O)cc1)[C@@H](C)CC)[C@@H](C)O)C(C)C)[C@@H](C)CC)C(=O)N[C@@H](CO)C(=O)N[C@@H](CCCNC(=N)N)C(=O)N[C@@H](CCC(N)=O)C(=O)N[C@@H](CCC(N)=O)C(N)=O [[Asn^3,Asp^8,Asn^25,Nle^27]-hGRF(1-31)--NH2] (H-YANAIFTDSYRKVLGQLSARKLLQNI[Nle]SRQQ-NH2) | 12.05 | 5 | 94 % of hGRF | 3 |
